Tests used:
Assay type in all cases: in vivo
[1] = test system: mouse kidney ischemia reperfusion; experiment: kidney ischemia reperfusion: kidney histopathologic examination (HE); conditions: vs IR group, DPCPX 1 mg/kg; for renal tubulointerstitial impairment score: P<0.01, HEA 5, 7.5, 10 mg/kg, DPCPX 1 mg/kg+HEA 5 or 7.5 mg/kg; for kidney histopathological changes (HE×400): HEA groups printed as 2.5, 5, 7.5 mg/kg, DPCPX+HEA 5 or 7.5 mg/kg
Procedure: Male C57BL/6 mice 20-25 g, after one week of adaptive feeding to the animals, were randomly divided into eight groups: sham-operation group, IR group, HEA 5 mg/kg group, HEA 7 mg/kg group, HEA 10 mg/kg group, DPCPX (1 mg/kg) group, DPCPX (1 mg/kg)+HEA (5 mg/kg) group and DPCPX (1 mg/kg)+HEA (7.5 mg/kg) group. The mouse was weighed before operation, then peritoneally injected with pentobarbital sodium 50 mg/kg to anaesthetize the mouse, abdomen was opened by ventromedial incision, blunt dissection and the kidney pedicle was sufficiently exposed, renal ischemia was induced by clapping two side kidney pedicle with non-invasive bulldog clamp, the color of kidney change from bright red to purple black immediately, determination method of success of the experiment model can refer to the methods in literature 7 and 8. At time of 30 min of ischemia the bulldog clamp was loosened, the perfuse was restored, the color of kidney changed gradually from dark red to bright red, showing re perfusion was successful. The wound was stitched. The animals were freely fed water and food. In the sham-operation group, the mice only received operation of abdomen open, kidney pedicle and abdomen suture. The kidney IR mode were made for the mice in the remaining groups. In each drug group, before 15 minute of ischemia, the drug with corresponding concentration was speritoneally injected, in drug combination group, 15 minutes before ischemia, the drugs were given simultaneously. At 24 hours after reperfusion, the mouse was anaesthetized again, the kidney specimen was obtained. The kidney specimen is fixed by 10% formaldehyde solution, paraffin embedded, sectioned, hematoxylin-eosin staining (HE), and the kidney histopathological change was observed under optical microscope.

[2] = test system: mouse kidney ischemia reperfusion; experiment: kidney ischemia reperfusion: apoptosis by TUNEL method; conditions: vs IR group, DPCPX 1 mg/kg; for renal tubular epithelial cell apoptosis number (TUNEL×400): HEA treated group, DPCPX+HEA
Procedure: (§1) Male C57BL/6 mice 20-25 g, after one week of adaptive feeding to the animals, were randomly divided into eight groups: sham-operation group, IR group, HEA 5 mg/kg group, HEA 7 mg/kg group, HEA 10 mg/kg group, DPCPX (1 mg/kg) group, DPCPX (1 mg/kg)+HEA (5 mg/kg) group and DPCPX (1 mg/kg)+HEA (7.5 mg/kg) group.
The mouse was weighed before operation, then peritoneally injected with pentobarbital sodium 50 mg/kg to anaesthetize the mouse, abdomen was opened by ventromedial incision, blunt dissection and the kidney pedicle was sufficiently exposed, renal ischemia was induced by clapping two side kidney pedicle with non-invasive bulldog clamp, the color of kidney change from bright red to purple black immediately, determination method of success of the experiment model can refer to the methods in literature 7 and 8. At time of 30 min of ischemia the bulldog clamp was loosened, the perfuse was restored, the color of kidney changed gradually from dark red to bright red, showing re perfusion was successful. The wound was stitched. The animals were freely fed water and food.
In the sham-operation group, the mice only received operation of abdomen open, kidney pedicle and abdomen suture. The kidney IR mode were made for the mice in the remaining groups. In each drug group, before 15 minute of ischemia, the drug with corresponding concentration was speritoneally injected, in drug combination group, 15 minutes before ischemia, the drugs were given simultaneously.
Fetching a part of the stored kidney tissue, conventional paraffin embedded 4 μm of section. Operate according to the method of the specification in kit. […] Randomly selecting 10 400-fold visual fields, calculate apoptosis index AI %=positive cell number/total number of all cell in the visual field×100%.

[3] = test system: myeloperoxidase (MPO) activity in mouse renal cortex; experiment: kidney ischemia reperfusion: MPO analysis; conditions: vs IR group, P<0.05; HEA 5 and 7.5 mg/kg; DPCPX 1 mg/kg; DPCPX 1 mg/kg+HEA 5 mg/kg
Procedure: Male C57BL/6 mice 20-25 g, after one week of adaptive feeding to the animals, were randomly divided into eight groups: sham-operation group, IR group, HEA 5 mg/kg group, HEA 7 mg/kg group, HEA 10 mg/kg group, DPCPX (1 mg/kg) group, DPCPX (1 mg/kg)+HEA (5 mg/kg) group and DPCPX (1 mg/kg)+HEA (7.5 mg/kg) group. The mouse was weighed before operation, then peritoneally injected with pentobarbital sodium 50 mg/kg to anaesthetize the mouse, abdomen was opened by ventromedial incision, blunt dissection and the kidney pedicle was sufficiently exposed, renal ischemia was induced by clapping two side kidney pedicle with non-invasive bulldog clamp, the color of kidney change from bright red to purple black immediately, determination method of success of the experiment model can refer to the methods in literature 7 and 8. At time of 30 min of ischemia the bulldog clamp was loosened, the perfuse was restored, the color of kidney changed gradually from dark red to bright red, showing re perfusion was successful. The wound was stitched. The animals were freely fed water and food. In the sham-operation group, the mice only received operation of abdomen open, kidney pedicle and abdomen suture. […] 9.2.6 Real time quantitative PCR analysis of gene expression of ICAM-1, TNF-α and IL-1β; the sequence of primer used in RT-PCR reaction system is as follow: […]

[4] = test system: IL-1β mRNA in mouse renal cortex; experiment: kidney ischemia reperfusion: real time quantitative PCR of IL-1β; conditions: vs IR group; HEA 5, 7.5, 10 mg/kg; DPCPX 1 mg/kg; DPCPX 1 mg/kg+HEA
Procedure: as §1, with “group. […]” for “group.”
The MPO analysis was conducted according to the specification in the kit. 9.2.6 Real time quantitative PCR analysis of gene expression of ICAM-1, TNF-α and IL-1β; the sequence of primer used in RT-PCR reaction system is as follow:
PCR amplification reaction system: IQ SYBR Green Super mix 12.5 μL, Forward primer (10 μmo/L) 1 μL, Reverse primer (10 μmol/L) 1 μL, cDNA (water was added to dilute to same level) 10.5 μL. […] The statistics and calculation of experiment results was automatically conducted fluorescence quantitative PCR analyzing software BIO-RAD CFX Manager. Target gene mRNA expression level was calculated by 2-ΔΔCt method, and standardized using the GAPDH mRNA in corresponding specimen a standard.

Compound	renal tubulointerstitial impairment score [1]	kidney histopathological changes (HE×400) [1]	renal tubular epithelial cell apoptosis number (TUNEL×400) [2]	myeloperoxidase (MPO) activity in renal cortex [3]	IL-1β mRNA expression in renal cortex [4]	TUNEL apoptosis index ([2]; P<0.01, HEA 5, 7.5, 10 mg/kg, DPCPX 1 mg/kg+HEA 5 or 7.5 mg/kg)
CCCn1c(=O)c2[nH]c(C3CCCC3)nc2n(CCC)c1=O [DPCPX, reference compound]	significantly increase renal tubulointerstitial impairment scores	aggravate tissue necrosis	significantly increased	significantly increase MPO activity	significantly increase	–
OCCNc1ncnc2c1ncn2[C@@H]1O[C@H](CO)[C@@H](O)[C@H]1O [HEA, N(6)-(2-hydroxyethyl)-adenosine]	significantly reduced	significantly reduced compared with IR group	apoptosis number is reduced	significantly reduced	significantly reduce the high expression	significantly less than IR group

From patent US10479814B2, “Adenosine receptor activation reagent and the uses of thereof” (Zhejiang Subtropical Crops Research Institute, priority 2014, dated 2019)
